Experimental data taken from ChEMBL document CHEMBL1799910, “Optimization of 1,2,3,4-tetrahydroacridin-9(10H)-ones as antimalarials utilizing structure-activity and structure-property relationships” (J Med Chem, 2011).
In brackets after ≈: the same amount, converted by molar mass.

What was measured:
[1] = Cytotoxicity index, ratio of EC50 for mouse J774 cells to EC50 for chloroquine, mefloquine, pyrimethamine and atovaquone-resistant Plasmodium falciparum TM90-C2B; assay type: cell-based; settings: read-out: Ratio EC50
[2] = Aqueous solubility of compound at pH 7.4 by HPLC analysis; settings: buffer
[3] = test system: Plasmodium falciparum; assay: Resistance index, ratio of EC50 for chloroquine, mefloquine, pyrimethamine and atovaquone-resistant Plasmodium falciparum TM90-C2B to EC50 for chloroquine and pyrimethamine-resistant Plasmodium falciparum W2; assay type: functional
[4] = test system: Liver; assay: (§1) Stability in mouse liver microsomes; assay type: ADME, Microsome; settings: microsomes
[5] = test system: Plasmodium falciparum; assay: Antimalarial activity against chloroquine, mefloquine, pyrimethamine and atovaquone-resistant Plasmodium falciparum TM90-C2B infected in human A positive erythrocytes after 72 hrs by SYBR Green I assay; assay type: functional, organism-based
[6] = Partition coefficient, log D of the compound at pH 7.4 by HPLC analysis; settings: octanol/water
[7] = Permeability of the compound by PAMPA method at pH 7.4; assay type: ADME; settings: read-out: permeability
[8] = test system: J774; assay: Cytotoxicity against mouse J774 cells after 72 hrs by Cell titer 96 aqueous one solution cell proliferation assay; assay type: cell-based; settings: J774, 72 h
[9] = test system: Plasmodium falciparum; assay: Antimalarial activity against chloroquine and pyrimethamine-resistant Plasmodium falciparum W2 infected in human A positive erythrocytes after 72 hrs by SYBR Green I assay; assay type: functional, organism-based; settings: W2, 72 h
[10] = as §1; assay type: ADME, Microsome; settings: liver microsomes
[11] = test system: Plasmodium falciparum; assay: Antimalarial activity against Plasmodium falciparum D6 infected in human A positive erythrocytes after 72 hrs by SYBR Green I assay; assay type: functional, organism-based; settings: D6, 72 h

SMILES	selectivity ratio [1]	solubility [2] [µM]	Ratio EC50 [3]	Stability [4]	EC50 [5] [nM]	logD [6]	Papp [7] [×10⁻⁶ cm/s]	EC50 [8] [nM]	EC50 [9] [nM]	half-life [10] [h]	EC50 [11] [nM]
O=c1c2c([nH]c3ccc(-c4ccc(C(F)(F)F)cc4)cc13)CCCC2	≥ 100	2 (≈ 0.687 µg/mL)	0.77	Stable	44.9	3.6	36	> 2000	58.2		
O=c1c2c([nH]c3cc(-c4ccc(C(F)(F)F)cc4)ccc13)CCCC2	≥ 100	3 (≈ 1.03 µg/mL)	0.24	Stable	8.7	2.45	250	> 2000	34.9		
O=c1c2c([nH]c3cc(-c4ccc(Oc5ccc(OC(F)(F)F)cc5)cc4)ccc13)CCCC2	≥ 100	0.1 (≈ 0.0451 µg/mL)	0.75		9.1	3.8	18	> 100	12.2	2.89	
COc1cc2[nH]c3c(c(=O)c2cc1Cl)CS(=O)(=O)CC3	≥ 100	24 (≈ 7.53 µg/mL)	1.76	Stable	8410	1		> 20000	4710		
O=C1CC(c2ccc(C(F)(F)F)cc2)Cc2c1c(=O)c1cc(Cl)ccc1n2O (stereo not drawn) [FLOXACRINE]	≥ 100								478		270
